Test: xn = mol fraction of the nth substance listed
Conditions: 101 kPa, Liquid; for viscosity: Capillary tube (Ostwald / Ubbelohde) method; for mass density: Vibrating tube method

CCCCCCO [hexan-1-ol] + CC(C)CC(C)(C)C
Conditions	mass density [kg/m3]	viscosity [mPa·s]
298.15 K, x2 = 0	815.3	4.605
298.15 K, x2 = 0.1001	799.99	3.428
298.15 K, x2 = 0.2	785	2.565
298.15 K, x2 = 0.3001	770.65	1.933
298.15 K, x2 = 0.4	756.92	1.452
298.15 K, x2 = 0.5	743.89	1.124
298.15 K, x2 = 0.6001	731.33	0.899
298.15 K, x2 = 0.7001	719.63	0.737
298.15 K, x2 = 0.7997	708.41	0.621
298.15 K, x2 = 0.8998	697.73	0.536
298.15 K, x2 = 0.9199	695.61	–
298.15 K, x2 = 0.9396	693.66	–
298.15 K, x2 = 0.9595	691.69	–
303.15 K, x2 = 0	811.71	3.944
303.15 K, x2 = 0.1001	796.32	2.958
303.15 K, x2 = 0.2	781.24	2.236
303.15 K, x2 = 0.3001	766.82	1.728
303.15 K, x2 = 0.4	753.03	1.306
303.15 K, x2 = 0.5	739.93	1.051
303.15 K, x2 = 0.6001	727.33	0.829
303.15 K, x2 = 0.7001	715.58	0.688
303.15 K, x2 = 0.7997	704.3	0.582
303.15 K, x2 = 0.8998	693.58	0.504
303.15 K, x2 = 0.9199	691.45	–
303.15 K, x2 = 0.9396	689.52	–
303.15 K, x2 = 0.9595	687.54	–
308.15 K, x2 = 0	808.09	3.414
308.15 K, x2 = 0.1001	792.61	2.592
308.15 K, x2 = 0.2	777.46	1.965
308.15 K, x2 = 0.3001	762.96	1.536
308.15 K, x2 = 0.4	749.11	1.18
308.15 K, x2 = 0.5	735.95	0.941
308.15 K, x2 = 0.6001	723.29	0.775
308.15 K, x2 = 0.7001	711.48	0.643
308.15 K, x2 = 0.7997	700.16	0.546
308.15 K, x2 = 0.8998	689.39	0.476
308.15 K, x2 = 0.9199	687.26	–
308.15 K, x2 = 0.9396	685.32	–
308.15 K, x2 = 0.9595	683.35	–
313.15 K, x2 = 0	804.43	2.96
313.15 K, x2 = 0.1001	788.88	2.275
313.15 K, x2 = 0.2	773.65	1.745
313.15 K, x2 = 0.3001	759.07	1.361
313.15 K, x2 = 0.4	745.15	1.071
313.15 K, x2 = 0.5	731.93	0.861
313.15 K, x2 = 0.6001	719.21	0.721
313.15 K, x2 = 0.7001	707.36	0.596
313.15 K, x2 = 0.7997	695.98	0.512
313.15 K, x2 = 0.8998	685.18	0.449
313.15 K, x2 = 0.9199	683.03	–
313.15 K, x2 = 0.9396	681.09	–
313.15 K, x2 = 0.9595	679.12	–
318.15 K, x2 = 0	800.75	2.581
318.15 K, x2 = 0.1001	785.1	1.997
318.15 K, x2 = 0.2	769.8	1.577
318.15 K, x2 = 0.3001	755.15	1.23
318.15 K, x2 = 0.4	741.15	0.976
318.15 K, x2 = 0.5	727.88	0.807
318.15 K, x2 = 0.6001	715.1	0.658
318.15 K, x2 = 0.7001	703.19	0.559
318.15 K, x2 = 0.7997	691.77	0.483
318.15 K, x2 = 0.8998	680.92	0.424
318.15 K, x2 = 0.9199	678.78	–
318.15 K, x2 = 0.9396	676.83	–
318.15 K, x2 = 0.9595	674.86	–
323.15 K, x2 = 0	797.02	2.251
323.15 K, x2 = 0.1001	781.29	1.778
323.15 K, x2 = 0.2	765.91	1.391
323.15 K, x2 = 0.3001	751.18	1.113
323.15 K, x2 = 0.4	737.12	0.894
323.15 K, x2 = 0.5	723.78	0.747
323.15 K, x2 = 0.6001	710.95	0.623
323.15 K, x2 = 0.7001	698.99	0.523
323.15 K, x2 = 0.7997	687.52	0.455
323.15 K, x2 = 0.8998	676.63	0.402
323.15 K, x2 = 0.9199	674.48	–
323.15 K, x2 = 0.9396	672.54	–
323.15 K, x2 = 0.9595	670.56	–

Source: the NIST ThermoML archive (doi:10.1021/je501041r)
